Reference: US20060069132A1, “Azolecarboxamide herbicides” (priority 2004, published 2006)

How the values were obtained:
barnyardgrass = assay: Test B pre-/postemergence herbicide test; assay type: in vivo, Echinochloa crus-galli; conditions: for Barnyardgrass plant response rating (0 to 100 scale) / Plant response rating, Barnyardgrass: preemergence; for Barnyardgrass plant response rating: postemergence, scale 0 (no effect) to 100 (complete control)
In short: (§1)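 Formulation: non-phytotoxic solvent mix with surfactant. Timing: preemergence on seed and postemergence on 2–18 cm plants, applied concurrently. Readout after 13–15 d greenhouse: visual 0–100 control rating against controls.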

Surinam grass = assay: Test B pre-/postemergence herbicide test; assay type: in vivo, Urochloa decumbens; conditions: for Surinam Grass plant response rating (0 to 100 scale) / Plant response rating, Surinam Grass: preemergence; for Surinam Grass plant response rating: postemergence, scale 0 (no effect) to 100 (complete control)
In short: (§2)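 Seeds were planted and treated preemergence with compounds formulated in a non-phytotoxic solvent mixture containing surfactant, while plants at the 1- to 4-leaf stage (2 to 18 cm) received postemergence sprays. Flooded paddy plants were grown to the 2-leaf stage. After 13 to 15 days in a greenhouse, injury was visually rated 0–100 against untreated controls.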

cocklebur = assay: Test B pre-/postemergence herbicide test; assay type: in vivo, Xanthium strumarium; conditions: for Cocklebur plant response rating (0 to 100 scale) / Plant response rating, Cocklebur: preemergence; for Cocklebur plant response rating: postemergence, scale 0 (no effect) to 100 (complete control)
In short: as §1

corn = assay: Test B pre-/postemergence herbicide test; assay type: in vivo, Zea mays; conditions: for Corn plant response rating (0 to 100 scale) / Plant response rating, Corn: preemergence; for Corn plant response rating: postemergence, scale 0 (no effect) to 100 (complete control)
In short: as §2

large crabgrass = assay: Test B pre-/postemergence herbicide test; assay type: in vivo, Digitaria sanguinalis; conditions: for Crabgrass, Large plant response rating (0 to 100 scale) / Plant response rating, Crabgrass, Large: preemergence; for Crabgrass, Large plant response rating: postemergence, scale 0 (no effect) to 100 (complete control)
In short: as §2

giant foxtail = assay: Test B pre-/postemergence herbicide test; assay type: in vivo, Setaria faberi; conditions: for Foxtail, Giant plant response rating (0 to 100 scale) / Plant response rating, Foxtail, Giant: preemergence; for Foxtail, Giant plant response rating: postemergence, scale 0 (no effect) to 100 (complete control)
In short: as §2

lambsquarters = assay: Test B pre-/postemergence herbicide test; assay type: in vivo, Chenopodium album; conditions: for Lambsquarters plant response rating (0 to 100 scale) / Plant response rating, Lambsquarters: preemergence; for Lambsquarters plant response rating: postemergence, scale 0 (no effect) to 100 (complete control)
In short: as §2

morningglory = assay: Test B pre-/postemergence herbicide test; assay type: in vivo, Ipomoea coccinea; conditions: for Morningglory plant response rating (0 to 100 scale) / Plant response rating, Morningglory: preemergence; for Morningglory plant response rating: postemergence, scale 0 (no effect) to 100 (complete control)
In short: as §1

pigweed = assay: Test B pre-/postemergence herbicide test; assay type: in vivo, Amaranthus retroflexus; conditions: for Pigweed plant response rating (0 to 100 scale) / Plant response rating, Pigweed: preemergence; for Pigweed plant response rating: postemergence, scale 0 (no effect) to 100 (complete control)
In short: as §2

velvetleaf = assay: Test B pre-/postemergence herbicide test; assay type: in vivo, Abutilon theophrasti; conditions: for Velvetleaf plant response rating (0 to 100 scale) / Plant response rating, Velvetleaf: preemergence; for Velvetleaf plant response rating: postemergence, scale 0 (no effect) to 100 (complete control)
In short: as §2

blackgrass = assay: Test B postemergence herbicide test; assay type: in vivo, Alopecurus myosuroides; conditions: postemergence, visual rating, scale 0 (no effect) to 100 (complete control)
In short: (§3)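 Scale 0–100: zero equals no visible effect, 100 complete control, judged by eye relative to controls. Timing: 13 to 15 days in greenhouse post-treatment. Growth stage at spraying: two leaves (paddy) or one to four leaves, 2–18 cm (postemergence).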

wild oat = assay: Test B postemergence herbicide test; assay type: in vivo, Avena fatua; conditions: postemergence, visual rating, scale 0 (no effect) to 100 (complete control)
In short: as §3

rice = assay: Test B flooded paddy test; assay type: in vivo, Oryza sativa; conditions: 1000 g ai/ha, visual rating, scale 0 to 100 (0 no effect, 100 complete control), 13 to 15 days
In short: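 Visual ratings, 0 (no effect) to 100 (complete control), made versus controls after 13–15 d greenhouse. Paddy plants treated at 2-leaf stage; postemergence plants at 1- to 4-leaf stage, 2–18 cm tall.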

[1] = test system: small flower umbrella sedge; assay: Test B flooded paddy test; assay type: in vivo, Cyperus difformis; conditions: 1000 g ai/ha, visual rating, scale 0 to 100 (0 no effect, 100 complete control), 13 to 15 days
In short: as §3

ducksalad = assay: Test B flooded paddy test; assay type: in vivo, Heteranthera limosa; conditions: 1000 g ai/ha, visual rating, scale 0 to 100 (0 no effect, 100 complete control), 13 to 15 days
In short: as §3

[2] = 125 g ai/ha, 0 = no effect, 100 = complete control
[3] = 500 g ai/ha, visual rating 0-100, 0 no effect, 100 complete control
[4] = 500 g ai/ha, visual rating, 0 = no effect, 100 = complete control

`CCc1nc(C(C)(C)C)sc1C(=O)Nc1cccc(C(=O)NCC2CC2)c1` [Compound 212] was tested, and the “Barnyardgrass plant response rating (0 to 100 scale)” value (barnyardgrass; [2]) was 80, the “Plant response rating, Barnyardgrass” value (barnyardgrass; [3]) was 90 and the “Barnyardgrass plant response rating” value (barnyardgrass; 125 g ai/ha, visual rating) was 10. For the same compound, the “Barnyardgrass plant response rating” value (barnyardgrass; 500 g ai/ha, visual rating) was 20, the “Surinam Grass plant response rating (0 to 100 scale)” value (Surinam grass; [2]) was 50 and the “Plant response rating, Surinam Grass” value (Surinam grass; [3]) was 70. The “Surinam Grass plant response rating” value (Surinam grass; 125 g ai/ha, visual rating) was 30, the “Surinam Grass plant response rating” value (Surinam grass; 500 g ai/ha, visual rating) was 60 and the “Cocklebur plant response rating (0 to 100 scale)” value (cocklebur; [2]) was 0. For the same compound, the “Plant response rating, Cocklebur” value (cocklebur; [3]) was 50, the “Cocklebur plant response rating” value (cocklebur; 125 g ai/ha, visual rating) was 80 and the “Cocklebur plant response rating” value (cocklebur; 500 g ai/ha, visual rating) was 90. For the same compound, the “Corn plant response rating (0 to 100 scale)” value (corn; [2]) was 10, the “Plant response rating, Corn” value (corn; [3]) was 30 and the “Corn plant response rating” value (corn; 125 g ai/ha, visual rating) was 20. For the same compound, the “Corn plant response rating” value (corn; 500 g ai/ha, visual rating) was 40, the “Crabgrass, Large plant response rating (0 to 100 scale)” value (large crabgrass; [2]) was 60 and the “Plant response rating, Crabgrass, Large” value (large crabgrass; [3]) was 100. For the same compound, the “Crabgrass, Large plant response rating” value (large crabgrass; 125 g ai/ha, visual rating) was 10, the “Crabgrass, Large plant response rating” value (large crabgrass; 500 g ai/ha, visual rating) was 10 and the “Foxtail, Giant plant response rating (0 to 100 scale)” value (giant foxtail; [2]) was 70. For the same compound, the “Plant response rating, Foxtail, Giant” value (giant foxtail; [3]) was 100, the “Foxtail, Giant plant response rating” value (giant foxtail; 125 g ai/ha, visual rating) was 10 and the “Foxtail, Giant plant response rating” value (giant foxtail; 500 g ai/ha, visual rating) was 40. The “Lambsquarters plant response rating (0 to 100 scale)” value (lambsquarters; [2]) was 100, the “Plant response rating, Lambsquarters” value (lambsquarters; [3]) was 100 and the “Lambsquarters plant response rating” value (lambsquarters; 125 g ai/ha, visual rating) was 90. The “Lambsquarters plant response rating” value (lambsquarters; 500 g ai/ha, visual rating) was 100, the “Morningglory plant response rating (0 to 100 scale)” value (morningglory; [2]) was 0 and the “Plant response rating, Morningglory” value (morningglory; [3]) was 60. For the same compound, the “Morningglory plant response rating” value (morningglory; 125 g ai/ha, visual rating) was 10, the “Morningglory plant response rating” value (morningglory; 500 g ai/ha, visual rating) was 50 and the “Pigweed plant response rating (0 to 100 scale)” value (pigweed; [2]) was 100. The “Plant response rating, Pigweed” value (pigweed; [3]) was 100, the “Pigweed plant response rating” value (pigweed; 125 g ai/ha, visual rating) was 60 and the “Pigweed plant response rating” value (pigweed; 500 g ai/ha, visual rating) was 90. The “Velvetleaf plant response rating (0 to 100 scale)” value (velvetleaf; [2]) was 10, the “Plant response rating, Velvetleaf” value (velvetleaf; [3]) was 80 and the “Velvetleaf plant response rating” value (velvetleaf; 125 g ai/ha, visual rating) was 50. The “Velvetleaf plant response rating” value (velvetleaf; 500 g ai/ha, visual rating) was 70, the “Blackgrass plant response rating” value (blackgrass; 125 g ai/ha) was 10 and the “Blackgrass plant response rating” value (blackgrass; 500 g ai/ha) was 20. For the same compound, the “Oat, Wild plant response rating” value (wild oat; 125 g ai/ha) was 20, the “Oat, Wild plant response rating” value (wild oat; 500 g ai/ha) was 20 and the “Rice plant response rating” value (rice) was 70. For the same compound, the “Sedge, Umbrella plant response rating” value [1] was 70 and the “Ducksalad plant response rating” value (ducksalad) was 80.
With `CCc1nc(C(C)(C)C)sc1C(=O)Nc1cccc(C(=O)NC(C)(C)C)n1` [Compound 216] the “Barnyardgrass plant response rating (0 to 100 scale)” value (barnyardgrass; [2]) was 0, the “Plant response rating, Barnyardgrass” value (barnyardgrass; [4]) was 40 and the “Barnyardgrass plant response rating” value (barnyardgrass; 125 g ai/ha, visual rating) was 0. The “Barnyardgrass plant response rating” value (barnyardgrass; 500 g ai/ha, visual rating) was 10, the “Surinam Grass plant response rating (0 to 100 scale)” value (Surinam grass; [2]) was 0 and the “Plant response rating, Surinam Grass” value (Surinam grass; [4]) was 70. For the same compound, the “Surinam Grass plant response rating” value (Surinam grass; 125 g ai/ha, visual rating) was 0, the “Surinam Grass plant response rating” value (Surinam grass; 500 g ai/ha, visual rating) was 20 and the “Cocklebur plant response rating (0 to 100 scale)” value (cocklebur; [2]) was 0. For the same compound, the “Plant response rating, Cocklebur” value (cocklebur; [4]) was 0, the “Cocklebur plant response rating” value (cocklebur; 125 g ai/ha, visual rating) was 0 and the “Cocklebur plant response rating” value (cocklebur; 500 g ai/ha, visual rating) was 70. The “Corn plant response rating (0 to 100 scale)” value (corn; [2]) was 0, the “Plant response rating, Corn” value (corn; [4]) was 0 and the “Corn plant response rating” value (corn; 125 g ai/ha, visual rating) was 0. For the same compound, the “Corn plant response rating” value (corn; 500 g ai/ha, visual rating) was 10, the “Crabgrass, Large plant response rating (0 to 100 scale)” value (large crabgrass; [2]) was 0 and the “Plant response rating, Crabgrass, Large” value (large crabgrass; [4]) was 40. For the same compound, the “Crabgrass, Large plant response rating” value (large crabgrass; 125 g ai/ha, visual rating) was 0, the “Crabgrass, Large plant response rating” value (large crabgrass; 500 g ai/ha, visual rating) was 0 and the “Foxtail, Giant plant response rating (0 to 100 scale)” value (giant foxtail; [2]) was 0. For the same compound, the “Plant response rating, Foxtail, Giant” value (giant foxtail; [4]) was 60, the “Foxtail, Giant plant response rating” value (giant foxtail; 125 g ai/ha, visual rating) was 0 and the “Foxtail, Giant plant response rating” value (giant foxtail; 500 g ai/ha, visual rating) was 20. For the same compound, the “Lambsquarters plant response rating (0 to 100 scale)” value (lambsquarters; [2]) was 90, the “Plant response rating, Lambsquarters” value (lambsquarters; [4]) was 100 and the “Lambsquarters plant response rating” value (lambsquarters; 125 g ai/ha, visual rating) was 0. The “Lambsquarters plant response rating” value (lambsquarters; 500 g ai/ha, visual rating) was 0, the “Morningglory plant response rating (0 to 100 scale)” value (morningglory; [2]) was 0 and the “Plant response rating, Morningglory” value (morningglory; [4]) was 0. For the same compound, the “Morningglory plant response rating” value (morningglory; 125 g ai/ha, visual rating) was 0, the “Morningglory plant response rating” value (morningglory; 500 g ai/ha, visual rating) was 0 and the “Pigweed plant response rating (0 to 100 scale)” value (pigweed; [2]) was 0. The “Plant response rating, Pigweed” value (pigweed; [4]) was 90, the “Pigweed plant response rating” value (pigweed; 125 g ai/ha, visual rating) was 0 and the “Pigweed plant response rating” value (pigweed; 500 g ai/ha, visual rating) was 20. The “Velvetleaf plant response rating (0 to 100 scale)” value (velvetleaf; [2]) was 0, the “Plant response rating, Velvetleaf” value (velvetleaf; [4]) was 0 and the “Velvetleaf plant response rating” value (velvetleaf; 125 g ai/ha, visual rating) was 0. The “Velvetleaf plant response rating” value (velvetleaf; 500 g ai/ha, visual rating) was 60, the “Blackgrass plant response rating” value (blackgrass; 125 g ai/ha) was 0 and the “Blackgrass plant response rating” value (blackgrass; 500 g ai/ha) was 0. The “Oat, Wild plant response rating” value (wild oat; 125 g ai/ha) was 0, the “Oat, Wild plant response rating” value (wild oat; 500 g ai/ha) was 0 and the “Rice plant response rating” value (rice) was 30. For the same compound, the “Sedge, Umbrella plant response rating” value [1] was 90 and the “Ducksalad plant response rating” value (ducksalad) was 80.
